Tests used:
[1] = xn = mol fraction of the nth substance listed; details: 100.8 kPa, Liquid; for viscosity: Capillary tube (Ostwald / Ubbelohde) method
[2] = refractive index (Na D-line) (dimensionless); xn = mol fraction of the nth substance listed; details: 100.8 kPa, Liquid, Standard Abbe refractometry

CC(C)CC(C)(C)C [2,2,4-trimethylpentane] + CC(C)=O
Details	mass density, 288.15 K [kg/m3]	mass density, 298.15 K [kg/m3]	mass density, 308.15 K [kg/m3]	refractive index, 288.15 K	refractive index, 298.15 K	refractive index, 308.15 K	viscosity, 288.15 K [mPa·s]	viscosity, 298.15 K [mPa·s]	viscosity, 308.15 K [mPa·s]
[1], x2 = 0	695.95	687.74	679.41	–	–	–	0.537	0.48	0.432
[1], x2 = 0.0499	697.34	688.89	680.44	–	–	–	0.519	0.465	0.42
[1], x2 = 0.1	698.86	690.36	681.77	–	–	–	0.505	0.452	0.408
[1], x2 = 0.15	700.68	692.07	683.36	–	–	–	0.492	0.44	0.397
[1], x2 = 0.2	702.68	693.98	685.16	–	–	–	0.479	0.429	0.387
[1], x2 = 0.25	705.09	696.24	687.26	–	–	–	0.468	0.419	0.378
[1], x2 = 0.3	707.68	698.7	689.56	–	–	–	0.456	0.409	0.369
[1], x2 = 0.35	710.55	701.44	692.21	–	–	–	0.446	0.399	0.361
[1], x2 = 0.4	713.76	704.51	695.1	–	–	–	0.436	0.39	0.353
[1], x2 = 0.45	717.31	707.86	698.29	–	–	–	0.426	0.382	0.346
[1], x2 = 0.5	721.15	711.61	701.91	–	–	–	0.416	0.374	0.338
[1], x2 = 0.55	725.46	715.73	705.86	–	–	–	0.407	0.366	0.332
[1], x2 = 0.6	730.17	720.32	710.3	–	–	–	0.398	0.358	0.325
[1], x2 = 0.65	735.45	725.44	715.27	–	–	–	0.389	0.35	0.318
[1], x2 = 0.7	741.35	731.16	720.79	–	–	–	0.38	0.343	0.312
[1], x2 = 0.75	747.84	737.51	727.01	–	–	–	0.372	0.336	0.306
[1], x2 = 0.8	755.3	744.71	733.99	–	–	–	0.364	0.329	0.299
[1], x2 = 0.85	763.58	752.89	742.02	–	–	–	0.356	0.322	0.293
[1], x2 = 0.9	773.12	762.22	751.12	–	–	–	0.348	0.315	0.287
[1], x2 = 0.95	784.18	773.02	761.68	–	–	–	0.341	0.309	0.281
[2], x2 = 0	–	–	–	1.39404	1.389	1.38395	–	–	–
[2], x2 = 0.0499	–	–	–	1.39283	1.38765	1.38256	–	–	–
[2], x2 = 0.1	–	–	–	1.39158	1.38634	1.38119	–	–	–
[2], x2 = 0.15	–	–	–	1.39031	1.38501	1.37981	–	–	–
[2], x2 = 0.2	–	–	–	1.38905	1.38374	1.37848	–	–	–
[2], x2 = 0.25	–	–	–	1.38769	1.3824	1.3771	–	–	–
[2], x2 = 0.3	–	–	–	1.3864	1.3811	1.37574	–	–	–
[2], x2 = 0.35	–	–	–	1.38509	1.37975	1.37434	–	–	–
[2], x2 = 0.4	–	–	–	1.38374	1.37833	1.3729	–	–	–
[2], x2 = 0.45	–	–	–	1.38233	1.37687	1.37142	–	–	–
[2], x2 = 0.5	–	–	–	1.38086	1.37538	1.36989	–	–	–
[2], x2 = 0.55	–	–	–	1.37934	1.37379	1.36831	–	–	–
[2], x2 = 0.6	–	–	–	1.37774	1.37219	1.36666	–	–	–
[2], x2 = 0.65	–	–	–	1.37606	1.3705	1.36495	–	–	–
[2], x2 = 0.7	–	–	–	1.3743	1.3687	1.36314	–	–	–
[2], x2 = 0.75	–	–	–	1.37243	1.36683	1.36126	–	–	–
[2], x2 = 0.8	–	–	–	1.37045	1.36486	1.35931	–	–	–
[2], x2 = 0.85	–	–	–	1.36839	1.36279	1.35726	–	–	–
[2], x2 = 0.9	–	–	–	1.36624	1.36064	1.3551	–	–	–
[2], x2 = 0.95	–	–	–	1.36394	1.35838	1.35285	–	–	–
